Measurements published in article PMC7822029, “Nanoparticles Based on Quaternary Ammonium Chitosan-methyl-β-cyclodextrin Conjugate for the Neuropeptide Dalargin Delivery to the Central Nervous System: An In Vitro Study” (Pharmaceutics, 2020).
Non-standard residues stand in square brackets, D forms with d. Residues, ends and D or L forms follow the SMILES beside them.

What was measured:
[1] = Cytotoxicity by WST-1 assay, Caco-2; assay type: cell-based; details: human, WST-1, DAL 17–150 µg/mL, HBSS pH 6.8, three independent experiments, read-out: cell vitality, Caco-2, over the whole concentration range
Method: To study the cytotoxicity of the DAL/N^+-Ch-CD complex, we mixed 400 µL of polymer solution (3.175 mg/mL) and 380 µL of 1 mg/mL aqueous DAL, and the mix was lyophilized under the conditions described above. The DAL-NP were lyophilized and the lyophilized product was re-suspended in 250 µL of 0.22 µm filtered water. An aliquot of dispersion (200 µL) was withdrawn and added to 20 µL of Hank’s buffer solution 10× (HBSS 37 ℃, pH 6.8), and the mix was made to 2 mL with HBSS 1X as to have a DAL content of […]. The Caco-2 cells were subjected to DAL concentrations in the 17–150 µg/mL range, while the bEnd.3 cells were brought into contact with DAL concentrations in the 17–100 µg/mL range; more specifically, DAL was free in solution, contained in the DAL/N^+-rCh-CD (1:1) complex, or encapsulated in NP. The cytotoxicity of the compounds under study was evaluated by the WST-1 assay. Caco-2 and bEnd.3 cells were seeded in each well of 96-well plates at a seeding density of 2 × 10^4 cells per well, and left to proliferate for 24 h at 37 ℃ in 5% CO2. The culture medium was then removed and replaced with samples of DAL, DAL/N^+-Ch-CD complex, and DAL-NP, as previously described. Afterwards, formazan dye absorbance was quantified at 450 nm with the reference wavelength of 655 by using an Enspire 230 (Perkin-Elmer, Waltham, MA, USA) multilabel reader.

Caco-2 monolayer = assay: Permeation across Caco-2 monolayer (Transwell); assay type: in vitro ADME; details: Caco-2 monolayer 24 days, A-B, apical DAL 150 µg/mL, up to 3 h, HPLC, NP as FITC-labeled DAL-NP
Method: The permeation studies were performed as described previously. Briefly, a Caco-2 monolayer was obtained by cell seeding (10^5 cells per well) on Transwell 12-well plates (pore size […], area 1.12 cm^2; Sigma-Aldrich, Saint Louis, MO, USA). Thereafter, 0.5 and 1.5 mL of culture medium were added to apical and basolateral compartments of the inserts, respectively; the culture medium was replaced every 2 days for 24 days. The transepithelial electrical resistance (TEER, Ω cm^2) measurement during the permeatstudies was carried out using a voltmeter with rod electrodes (Voltmeter Millicells-ERS, Millipore, Molsheim, France). The TEER values for the Caco-2 cell monolayer grown on the Transwell filter were ion taken at time 0, every hour for 3 h, and at 24 h.
Both the NP vehicle and the DAL were followed in the mucosal and basolateral phases. […] The withdrawn samples were kept in ice and analyzed by HPLC. The evaluation of DAL contained in NP-FITC by HPLC implied subtracting the contribution of the fluorescein-labeled polymer from the peptide peak area. Therefore, with each sample to be analyzed, a specific fluorescence intensity was recorded by a spectrofluorometer from which the fluorescent polymer concentration to be injected in the HPLC apparatus could be extrapolated. […]

pancreatin (PAC) = assay: Enzymatic degradation kinetics with pancreatin; assay type: in vitro ADME; details: PAC 0.18 mg/mL mixed, final DAL 0.50 mg/mL, 0.4 M PB, 37 ℃, HPLC
Method: (§1) Stock 1 mg/mL solutions of DAL-NP or free DAL in filtered 0.4 M PB were used for the enzymatic digestion tests. The solutions were mixed with 0.36 mg/mL CHT or 0.18 mg/mL PAC to obtain solutions with a final DAL concentration of 0.50 mg/mL. The DAL-NP and free DAL samples were subjected to digestion in the presence of CHT or PAC at 37 ℃ in a shaker water bath (80 rpm). At pre-established intervals, samples were withdrawn, appropriately diluted with the mobile phase (4 ℃), and analyzed in triplicate for DAL by HPLC, as described previously. The analysis was repeated in triplicate.

bEnd.3 monolayer = assay: Permeation across bEnd.3 monolayer (Transwell, BBB model); assay type: in vitro ADME, murine
Description: The medium was changed every 2 days.

α-chymotrypsin (CHT) = biological target: T1, α-chymotrypsin (CHT) (Bos taurus, UniProt P00766); assay: Enzymatic degradation kinetics with α-chymotrypsin; assay type: in vitro ADME; details: CHT 0.36 mg/mL mixed, final DAL 0.50 mg/mL, 0.4 M PB, 37 ℃, 80 rpm, HPLC, mean ± SD of three independent experiments
T1 construct: purchased Merk (Merck/Sigma-Aldrich, St. Louis, MO, USA)
Method: as §1

Method for bEnd.3 monolayers: The bEnd.3 cells, at a concentration of 5 × 10^4 cells per well, were seeded on 12-well Transwell plates with polyester filters with 0.4 µm membrane pores and incubated 10 days at 37 ℃ in a 5% CO2 atmosphere. One and a half milliliters of full medium was added to the basal chamber, while a volume of 0.5 mL, including the cells, was added to the apical chamber. The medium was changed every 2 days. After 6 days culture, the medium of the basolateral chamber was replaced by serum-free medium and the cells were cultured for 4 more days before the permeation experiment. To evaluate the confluence of the cell monolayer, and during the permeation studies, we measured the TEER at time 0 and at each hour for 3 h, and then at 24 h, as previously described. […] At 1 h intervals up to 3 h, the runs were interrupted and 500 µL was collected from the apical chamber and 1.5 mL from the basolateral chamber. Permeation of DAL and FITC-labeled vehicle into the basolateral chamber as well as DAL and FITC-labeled vehicle concentrations in the apical chamber were measured as described above.

SMILES | Papp, NaF 50 μg/mL (bEnd.3 monolayers) | Papp, NaF 100 μg/mL (bEnd.3 monolayers) | viability [1] [%] | DAL presence in basolateral chamber, Caco-2 (Caco-2 monolayer) | reduction of initial DAL content 2 min after adding PAC (pancreatin (PAC); 80 rpm, 2 min, three independent experiments) [%] | DAL present after 5 min with PAC (pancreatin (PAC); 5 min) | TEER of bEnd.3 monolayer during permeation experiment (bEnd.3 monolayer; 100% corresponds to 180 Ω cm^2, initial apical DAL 25 µg/mL, 3 h) [%] | DAL presence in basolateral chamber, bEnd.3 (bEnd.3 monolayer; bEnd.3 monolayer 10 days, Transwell, A-B, apical DAL 25 µg/mL, up to 3 h, HPLC, NP as FITC-labeled DAL-NP) | reduction of substrate (DAL) after 5 min with CHT (α-chymotrypsin (CHT)) [%]
O=C1OC2(c3ccc(O)cc3Oc3cc(O)ccc32)c2ccccc21 [NaF, Sodium fluorescein] | 0.51 10-6 cm/sec | 0.52 10-6 cm/sec | – | – | – | – | – | – | –
CC(C)C[C@H](NC(=O)[C@H](Cc1ccccc1)NC(=O)CNC(=O)[C@@H](C)NC(=O)[C@@H](N)Cc1ccc(O)cc1)C(=O)N[C@@H](CCCNC(=N)N)C(=O)O [DAL, (D-Ala2)-Leu Enkephalin-Arg] (H-Y[dA]GFLR-OH) | – | – | > 70 | could never be evidenced | 85 ± 1.39 | no peptide was present | 100 | below the analytical limit | 90 ± 0.41
